The values below come from publication PMC8196787, “Design and Pharmacodynamics of Recombinant Fungus Defensin NZL with Improved Activity against Staphylococcus hyicus In Vitro and In Vivo” (International Journal of Molecular Sciences, 2021).

≈ marks a conversion by molar mass, not a printed value. Positions of bridges follow the written chain, without caps; N, C: chain ends. Residues, ends and D or L forms follow the SMILES beside them.

In experiment [1] the test system is isolated S. hyicus (n = 207). The note with it: n = 207 isolates, Japan; cited from earlier work. The source says: Staphylococcus hyicus is one of the opportunistic and commensal pathogens which can cause acute infections to animals and humans. It was reported that exfoliative toxins-producing S. hyicus is primarily known as the most common causative agent of exudative epidermitis in pigs, which occurs typically as an acute skin lesions characterized by sebaceous exudation, exfoliation, and vesicle formation. This disease with prominent morbidity and mortality occurs worldwide, resulting in considerable economic losses in the swine industry. To date, piglets infected with S. hyicus are fr ...

Experiment [2] concerns S. aureus ATCC 43300. Nature of the experiment: microbe, parasite or virus in culture. It counts as cell-based. The note with it: S. aureus ATCC 43300; microbroth dilution, MHB, 1 × 10^5 CFU/mL, 37 °C, 16–20 h, peptides 1–256 μg/mL, triplicate. The procedure: (§1) The microbroth dilution method was used to evaluate the MIC values of new derivative peptides. […] The MIC value was defined as the lowest concentration where no visible bacteria growth occurred after overnight incubation. CRO was used as the positive control. All assays were conducted in triplicate.
(In general: Broth dilution looks for growth in wells or tubes with falling amounts of substance.)

Experiment [3] concerns S. hyicus ACCC 61734. Nature of the experiment: microbe, parasite or virus in culture. Type of experiment: cell-based. The note with it: S. hyicus ACCC 61734 (clinical strain); microbroth dilution, MHB, 37 °C, 16–20 h, triplicate. The protocol:
as §1

On to `CC[C@H]1OC(=O)[C@H](C)[C@@H](O[C@H]2C[C@@](C)(OC)[C@@H](O)[C@H](C)O2)[C@H](C)[C@@H](O[C@@H]2O[C@H](C)C[C@H](N(C)C)[C@H]2O)[C@](C)(O)C[C@@H](C)C(=O)[C@H](C)[C@@H](O)[C@]1(C)O` [erythromycin], for which the “Isolated S. hyicus resistant to the drug” value in experiment [1] is given as 56%.
For penicillin, in experiment [1], the “Isolated S. hyicus resistant to the drug” value is 76.8%.
Turning to `C[C@H]1c2cccc(O)c2C(=O)C2=C(O)[C@]3(O)C(=O)C(C(N)=O)=C(O)[C@@H](N(C)C)[C@@H]3[C@@H](O)[C@@H]21` [doxycycline], in experiment [1], the “Isolated S. hyicus resistant to the drug” value was 1.4%.
Regarding `O=C(N[C@H](CO)[C@H](O)c1ccc([N+](=O)[O-])cc1)C(Cl)Cl` [chloramphenicol], the “Isolated S. hyicus resistant to the drug” value in experiment [1] is 24.2%.
On to `NC[C@H]1O[C@H](O[C@H]2[C@H](O)[C@@H](O[C@H]3O[C@H](CO)[C@@H](O)[C@H](N)[C@H]3O)[C@H](N)C[C@@H]2N)[C@H](O)[C@@H](O)[C@@H]1O` [kanamycin], for which the “Isolated S. hyicus resistant to the drug” value in experiment [1] is reported as 19.8%.
Take `CC1(C)S[C@@H]2[C@H](NC(=O)[C@H](N)c3ccccc3)C(=O)N2[C@H]1C(=O)O` [ampicillin]: the “Isolated S. hyicus resistant to the drug” value in experiment [1] is listed as 76.8%.
`CC[C@H](C)[C@@H]1NC(=O)[C@H](CO)NC(=O)[C@H](CCCCN)NC(=O)[C@@H]2CSSC[C@@H](C(=O)N[C@@H](Cc3ccc(O)cc3)C(=O)O)NC(=O)[C@H](CCCCN)NC(=O)[C@@H]3CSSC[C@H](NC(=O)[C@H](CCCCN)NC(=O)[C@H](CC(C)C)NC(=O)[C@H](CC(=O)O)NC(=O)[C@H](CC(=O)O)NC(=O)[C@H](CCC(=O)O)NC(=O)[C@H](CCC(N)=O)NC(=O)[C@H](Cc4c[nH]c5ccccc45)NC(=O)[C@@H]4CCCN4C(=O)CNC(=O)[C@H](CC(N)=O)NC(=O)[C@@H](NC(=O)CNC(=O)[C@H](Cc4ccccc4)NC(=O)CN)CSSC[C@H](NC(=O)[C@H](Cc4ccc(O)cc4)NC(=O)CNC(=O)CNC(=O)[C@H](CCCCN)NC(=O)[C@H](Cc4ccc(O)cc4)NC(=O)CNC(=O)[C@H](CCCCN)NC1=O)C(=O)N[C@@H](C)C(=O)N[C@@H](CO)C(=O)N[C@@H](C)C(=O)NCC(=O)N[C@@H](Cc1ccccc1)C(=O)N[C@@H](C(C)C)C(=O)N3)C(=O)N[C@@H](Cc1c[nH]cn1)C(=O)N[C@@H](CC(N)=O)C(=O)N[C@@H](Cc1c[nH]cn1)C(=O)N2` [Peptide 9] (H-GFGCNGPWQEDDLKCHNHCKSIKGYKGGYCASAGFVCKCY-OH; disulfide 4-30, 15-37, 19-39; N-terminus and C-terminus assumed): the values for the MIC in experiment [2] and in experiment [3] were 4 µg/mL (≈ 0.915 µM) and 8 µg/mL (≈ 1.83 µM), respectively.
Turning to `CC[C@H](C)[C@@H]1NC(=O)[C@H](CO)NC(=O)[C@H](CCCCN)NC(=O)[C@@H]2CSSC[C@@H](C(=O)N[C@@H](Cc3ccc(O)cc3)C(=O)O)NC(=O)[C@H](CCCCN)NC(=O)[C@@H]3CSSC[C@H](NC(=O)[C@H](CCC(N)=O)NC(=O)[C@H]([C@@H](C)CC)NC(=O)[C@H](CC(=O)O)NC(=O)[C@H](CC(=O)O)NC(=O)[C@H](CCC(=O)O)NC(=O)[C@H]([C@@H](C)O)NC(=O)[C@H](Cc4c[nH]c5ccccc45)NC(=O)[C@@H]4CCCN4C(=O)CNC(=O)[C@H](CC(N)=O)NC(=O)[C@@H](NC(=O)CNC(=O)[C@H](Cc4ccccc4)NC(=O)CN)CSSC[C@H](NC(=O)[C@H](Cc4ccc(O)cc4)NC(=O)CNC(=O)CNC(=O)[C@H](CCCCN)NC(=O)[C@H](Cc4ccc(O)cc4)NC(=O)CNC(=O)[C@H](CCCCN)NC1=O)C(=O)N[C@@H](C)C(=O)N[C@@H](CCCNC(=N)N)C(=O)NCC(=O)NCC(=O)N[C@@H](Cc1ccccc1)C(=O)N[C@@H](C(C)C)C(=O)N3)C(=O)N[C@@H](Cc1c[nH]cn1)C(=O)N[C@@H](CC(N)=O)C(=O)N[C@@H](Cc1c[nH]cn1)C(=O)N2` [Peptide 10] (H-GFGCNGPWTEDDIQCHNHCKSIKGYKGGYCARGGFVCKCY-OH; disulfide 4-30, 15-37, 19-39; N-terminus and C-terminus assumed), the MIC in experiment [2] and in experiment [3] was over 128 µg/mL in each case.
As to `CC[C@H](C)[C@@H]1NC(=O)[C@H](CO)NC(=O)[C@H](CCCCN)NC(=O)[C@@H]2CSSC[C@@H](C(=O)N[C@@H](Cc3ccc(O)cc3)C(=O)O)NC(=O)[C@H](CCCCN)NC(=O)[C@@H]3CSSC[C@H](NC(=O)[C@H](CCCNC(=N)N)NC(=O)[C@H]([C@@H](C)CC)NC(=O)[C@H](CC(=O)O)NC(=O)[C@H](CC(=O)O)NC(=O)[C@H](CCC(=O)O)NC(=O)[C@H](CO)NC(=O)[C@H](Cc4c[nH]c5ccccc45)NC(=O)[C@@H]4CCCN4C(=O)CNC(=O)[C@H](CC(N)=O)NC(=O)[C@@H](NC(=O)CNC(=O)[C@H](Cc4ccccc4)NC(=O)CN)CSSC[C@H](NC(=O)[C@H](Cc4ccc(O)cc4)NC(=O)CNC(=O)CNC(=O)[C@H](CCCCN)NC(=O)[C@H](Cc4ccc(O)cc4)NC(=O)CNC(=O)[C@H](CCCCN)NC1=O)C(=O)N[C@@H](C)C(=O)N[C@@H](CO)C(=O)N[C@@H](C)C(=O)NCC(=O)N[C@@H](Cc1ccccc1)C(=O)N[C@@H](C(C)C)C(=O)N3)C(=O)N[C@@H](Cc1c[nH]cn1)C(=O)N[C@@H](CC(N)=O)C(=O)N[C@@H](Cc1c[nH]cn1)C(=O)N2` [Peptide 8] (H-GFGCNGPWSEDDIRCHNHCKSIKGYKGGYCASAGFVCKCY-OH; disulfide 4-30, 15-37, 19-39; N-terminus and C-terminus assumed), the MIC came to 64 µg/mL (≈ 14.7 µM) in experiment [2] and 128 µg/mL (≈ 29.4 µM) in experiment [3].
`CC[C@H](C)[C@@H]1NC(=O)[C@H](CO)NC(=O)[C@H](CCCCN)NC(=O)[C@@H]2CSSC[C@@H](C(=O)N[C@@H](Cc3ccc(O)cc3)C(=O)O)NC(=O)[C@H](CCCCN)NC(=O)[C@@H]3CSSC[C@H](NC(=O)[C@H](CCC(N)=O)NC(=O)[C@H](CC(C)C)NC(=O)[C@H](CC(=O)O)NC(=O)[C@H](CC(=O)O)NC(=O)[C@H](CCC(=O)O)NC(=O)[C@H](CO)NC(=O)[C@H](Cc4c[nH]c5ccccc45)NC(=O)[C@@H]4CCCN4C(=O)CNC(=O)[C@H](CC(N)=O)NC(=O)[C@@H](NC(=O)CNC(=O)[C@H](Cc4ccccc4)NC(=O)CN)CSSC[C@H](NC(=O)[C@H](Cc4ccc(O)cc4)NC(=O)CNC(=O)CNC(=O)[C@H](CCCCN)NC(=O)[C@H](Cc4ccc(O)cc4)NC(=O)CNC(=O)[C@H](CCCCN)NC1=O)C(=O)N[C@@H](C)C(=O)N[C@@H](CCCNC(=N)N)C(=O)NCC(=O)NCC(=O)N[C@@H](Cc1ccccc1)C(=O)N[C@@H](C(C)C)C(=O)N3)C(=O)N[C@@H](Cc1c[nH]cn1)C(=O)N[C@@H](CC(N)=O)C(=O)N[C@@H](Cc1c[nH]cn1)C(=O)N2` [Peptide 7] (H-GFGCNGPWSEDDLQCHNHCKSIKGYKGGYCARGGFVCKCY-OH; disulfide 4-30, 15-37, 19-39; N-terminus and C-terminus assumed): the figures for the MIC in experiment [2] and in experiment [3] were 2 µg/mL (≈ 0.456 µM) and 4 µg/mL (≈ 0.912 µM), respectively.
